Test results published in patent US20220162221A1, “Imaging Agents” (UCB Biopharma SRL, priority 2017, published 2022).

Tests used:
[1] = target: T1, tachykinin NK1 receptors (Homo sapiens, UniProt P25103); assay: NK1 binding, CEREP panel; conditions: n=1 in duplicate
T1 construct: purchased CEREP, contract assay
Description: (§1) Compound selectivity for human D1R was assessed at 10 μM at CEREP against a panel of 80 targets (n=1 with data in duplicate) including receptors, transporters, enzymes and ion channels. Potentially relevant affinity was identified for only 3 targets: dopamine D5 receptor (D5R), tachykinin NK1 receptors and adenosine transporter (ADET) with >60% inhibition at 10 μM of compound (±)-(I). Affinity (pKi) of compound of formula (±)-I for human DSR, NK1 receptor and ADET were then measured.

[2] = target: T2, dopamine D5 receptor (D5R) (Homo sapiens, UniProt P21918); assay: D5R binding, CEREP panel and pKi follow-up
T2 construct: purchased CEREP, contract assay
T2 sequence (P21918 whole entry): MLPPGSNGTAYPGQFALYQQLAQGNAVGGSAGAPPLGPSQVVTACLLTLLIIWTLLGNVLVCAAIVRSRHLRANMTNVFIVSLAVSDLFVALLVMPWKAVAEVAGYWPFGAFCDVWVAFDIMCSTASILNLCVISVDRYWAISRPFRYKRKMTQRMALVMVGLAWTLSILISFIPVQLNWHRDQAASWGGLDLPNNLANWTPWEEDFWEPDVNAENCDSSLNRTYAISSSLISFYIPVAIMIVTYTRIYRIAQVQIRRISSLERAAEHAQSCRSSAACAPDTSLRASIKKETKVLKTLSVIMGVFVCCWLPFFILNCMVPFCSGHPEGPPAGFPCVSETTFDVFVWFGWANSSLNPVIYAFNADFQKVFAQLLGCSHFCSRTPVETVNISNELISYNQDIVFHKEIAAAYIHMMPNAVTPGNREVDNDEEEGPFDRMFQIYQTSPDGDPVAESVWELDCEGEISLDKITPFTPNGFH
Description: as §1

[3] = system: adenosine transporter (ADET); assay: Adenosine transporter binding, CEREP panel; parameters: species or system human; conditions: at 10 μM, n=1 in duplicate
Description: as §1

[4] = target: human D1R (Homo sapiens, UniProt P21728); assay: [3H]SCH23390 radioligand competitive binding (CEREP); parameters: purchased CEREP (Celle l'Evescault, France), contract assay
human D1R, sequence (P21728 whole entry): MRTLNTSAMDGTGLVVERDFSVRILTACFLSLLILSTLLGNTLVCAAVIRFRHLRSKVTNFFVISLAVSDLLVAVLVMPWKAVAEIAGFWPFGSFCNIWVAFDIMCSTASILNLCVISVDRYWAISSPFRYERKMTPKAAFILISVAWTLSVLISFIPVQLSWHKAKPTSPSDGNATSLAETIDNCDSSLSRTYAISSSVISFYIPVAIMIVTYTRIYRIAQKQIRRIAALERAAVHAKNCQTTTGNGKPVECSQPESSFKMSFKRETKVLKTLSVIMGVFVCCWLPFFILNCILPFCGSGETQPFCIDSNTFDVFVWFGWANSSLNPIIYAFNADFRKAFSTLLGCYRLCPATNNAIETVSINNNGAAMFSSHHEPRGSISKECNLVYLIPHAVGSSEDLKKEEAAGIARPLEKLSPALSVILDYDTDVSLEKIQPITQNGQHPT
Description: (§2) To assess compound (I) affinity and selectivity for D1, it has been tested in competitive radioligand binding assays. Competitive radioligand binding assays were then used to measure (±)-I affinity for D1 receptor and assess its selectivity regarding a large panel of 80 related and unrelated targets.
Affinity (pKi) of Compound of formula (±)-(I) for recombinant human D1R was measured at CEREP (Celle l'Evescault, France) by [^3]SCH23390 radioligand competitive binding experiments.

[5] = target: hD1R in SK-N-MC cells (Homo sapiens, UniProt P21728); assay: cAMP HTRF D1 functional assay; conditions: cAMP HTRF
hD1R in SK-N-MC cells, sequence (P21728 whole entry): as above
Description: The reaction was terminated by consecutive additions of 10 μL d2 detection reagent and the cryptate reagent both diluted in lysis buffer. After a period of 60 min at room temperature, changes in HTRF emission ratio were determined and transformed in [cAMP]i using a standard curve.

[6] = system: panel of 80 targets including receptors, transporters, enzymes and ion channels; assay: Selectivity panel of 80 targets (CEREP); type: binding
Description: as §2, §1

[7] = competitive radioligand binding

T1 sequence (P25103 whole entry): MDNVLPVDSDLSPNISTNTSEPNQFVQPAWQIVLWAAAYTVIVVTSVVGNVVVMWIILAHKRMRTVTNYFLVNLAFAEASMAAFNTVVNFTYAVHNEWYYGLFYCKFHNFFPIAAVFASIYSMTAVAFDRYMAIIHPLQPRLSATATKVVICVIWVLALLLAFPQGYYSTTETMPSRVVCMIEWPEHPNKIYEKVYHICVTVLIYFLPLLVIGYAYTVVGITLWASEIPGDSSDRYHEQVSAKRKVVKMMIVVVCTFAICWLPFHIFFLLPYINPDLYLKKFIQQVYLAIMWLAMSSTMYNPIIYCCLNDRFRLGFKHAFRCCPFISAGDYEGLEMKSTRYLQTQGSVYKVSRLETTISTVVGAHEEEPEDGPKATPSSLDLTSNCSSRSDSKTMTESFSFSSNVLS

- inhibition at 10 µM [1]: > 60%
- Ki [2]: 0.398 nM
- inhibition at 10 µM ([2]; at 10 μM, n=1 in duplicate): > 60%
- affinity for D5 receptor [2, 7]: subnanomolar range
- inhibition, adenosine transporter (ADET) [3]: > 60%
- Ki ([4]; [3H]SCH23390 competition, read-out: pKi for human D1R (converted)): 0.631 nM
- affinity for D1 receptor [4, 7]: subnanomolar range
- agonist-like effect on D1 receptor [5]: significant direct agonist-like effect
- selectivity with respect to the other 79 tested targets ([6]; D1-like vs other targets): more than 1000 fold
- pKi for the other 79 tested targets ([6]; all targets other than D1R, D5R excepted by text): ≤ 6.0
- binding to the other tested targets ([6]; panel of 80 targets): do not significantly bind
SMILES: Cc1c(-c2ccc(Oc3nccc4occc34)cc2CF)n(C)c(=O)[nH]c1=O (racemic) [Compound (±)-(I), 6-[2-(fluoromethyl)-4-(furo[3,2-c]pyridin-4-yloxy)phenyl]-1,5-dimethylpyrimidine-2,4(1H,3H)-dione]
